In patent US9204643B2, “Temperature stable cloquintocet-mexyl aqueous compositions” (Dow AgroSciences LLC, priority 2012, dated 2015):

How the values were obtained:
[1] = Storage of hydrated CQCM/pyroxsulam concentrate two weeks at 54° C., chemical stability; format: physicochemical; conditions: for Chemical Stability: in hydrated CQCM/pyroxsulam concentrate
Procedure: The aqueous phase was formed by combining water, propylene glycol, antifoam, and wetter surfactant (SYNPERONIC 13/6.5; Croda USA) in a vessel. Powdered anhydrous CQCM was added to the aqueous phase and mixed with a low shear turbine type agitator for 1 hour or until the CQCM was fully converted to the hydrate. A tallow or coco-amine 15 mole ethoxylate (e.g., ETHOMEEN C-25; Akzo Nobel), and MORWET D-425 (Akzo Nobel) were added and mixed in with high shear agitation, followed by the addition of the remaining ingredients shown in Table 4. KELZAN S is a thickener commercially available from CPKelco; Atlanta, Ga. The slurry was then processed through a bead mill to yield the finished product. Short term accelerated storage testing was conducted using freeze/thaw (F/T) conditions during which the temperature was cycled between about −10° C. and 40° C. in a 2 hour period after remaining at −10° C. or 40° C. for 24 hours, as in Example 1. Samples of the composition containing pyroxsulam were also stored for two weeks at 54° C. to evaluate chemical stability of the CQCM […].

[2] = One year storage stability of hydrated CQCM/pyroxsulam concentrate in an unheated shed; format: physicochemical
Procedure: A 10 L production batch of the composition shown in Table 4 was prepared, dispatched for field trials in Australia, and stored for 1 year in an unheated shed subjected to temperatures ranging from −4° C. to 43° C.

Compound | Chemical Analysis (content in concentrate) ([1]; 54° C. (2 weeks)) [% w/w] | Chemical Stability ([1]; 54° C. (2 weeks)) [%] | Chemical Analysis (content in concentrate) ([1]; initial composition) [% w/w] | Chemical Stability: Content ([2]; after 1 year, −4° C. to 43° C.) | Chemical Stability: Retention ([2]; after 1 year, −4° C. to 43° C.) | Chemical Stability: Content ([2]; initial)
COc1cc(OC)n2nc(NS(=O)(=O)c3c(C(F)(F)F)ccnc3OC)nc2n1 [Pyroxsulam] | 4.73 | 102 | 4.65 | Pyroxsulam: 4.84 % w/w | Pyroxsulam: 104% | Pyroxsulam: 4.65 % w/w
CCCCCC(C)OC(=O)COc1ccc(Cl)c2cccnc12 (stereo not drawn) [CQCM, Cloquintocet-mexyl] | 13.24 | 97 | 13.69 | CQCM: 14.40 % w/w | CQCM: 102% | CQCM: 14.15 % w/w
